Reference: patent US10370391B2, “Hydrogen peroxide-activable, anti-oxidant compounds and methods using same” (Beth Israel Deaconess Medical Center, Inc., priority 2014, dated 2019)

Columns and labels:
[1] = system: cardiac I/R injury; test: Mouse model of cardiac I/R injury; format: in vivo
Description: The beneficial effects of BRAP were further investigated using a mouse model of cardiac I/R injury in vivo. After 45 minutes of ischemia, BRAP (1.5 mg/kg) or vehicle was administered i.p. at the time of reperfusion, and then daily (1.5 mg/kg/day) for 2 weeks. For cardiac functional analysis, pressure-volume (PV) loop measurement and echocardiography were performed at 2 weeks after I/R surgery.
Studies were then performed to determine whether the benefits of BRAP after I/R were associated with attenuation of oxidative stress, inflammation, and apoptosis. These mechanistic analyses were performed in heart tissues 24 hours after cardiac I/R injury. […] BRAP administration decreased TNF-α and MCP-1 expressions compared with vehicle-treated mice.
Cardiac I/R surgery was performed in 12 week-old male mice as described in Choudhury, et al., 2011, Basic Res Cardiol 106:397. Briefly, mice were anaesthetized and placed on a rodent ventilator (model 687, Harvard Respirator). After thoracotomy, the left anterior descending artery (LAD) artery was identified and ligated with a 7-0 silk suture tied around a specialized 30 G-catheter. The animal remained under anesthesia and ventilation for 45 min of ischemia, after which reperfusion was achieved by cutting the suture and re-establishing arterial perfusion. Sham operated mice underwent the same procedure without LAD occlusion.
Cardiac function was evaluated using the pressure-volume loop measurement and echocardiography 2 weeks after I/R as described in Lee, et al., 2013, Sci Rep 3:2233. Pressure-volume parameters were measured after isoflurane (2%) inhalant anesthesia using a 1.4 Fr. micro-tip pressure-volume catheter (Scisense Inc, Ontario, Canada) inserted into the right common carotid artery. The catheter was gently advanced into the left ventricle to obtain LV hemodynamic parameters. Data was recorded using a Powerlab system (ADInstruments, Colorado Springs, Colo.). Beat by beat pressure-volume parameters including heart rate (HR), stroke volume (SV), stroke work (SW) and cardiac output (CO) were measured and analyzed using CardioSoft Pro software (CardioSoft, Houston, Tex.). Transthoracic echocardiography was performed using a Vevo2100 ultra-high frequency small animal imaging system with MS400 transducer (18-38 MHz) (Visualsonics, Toronto, Canada).
For liver apoptosis assay, terminal deoxynucleotidyl transferase dUTP nick end labeling (TUNEL) staining was performed using a DeadEnd™ Fluorometric TUNEL kit (Promega, Madison, Wis.). Tissue sections were stained for nuclei (4′,6-diamidino-2-phenylindole (DAPI) staining) and apoptotic nuclei (TUNEL staining) and analyzed using a confocal laser scanning microscope. For heart tissues, TUNEL staining was performed using in situ cell death detection Kit, fluorescein (Roche Applied Science, Indianapolis, Ind.). To distinguish cardiomyocyte from non-cardiomyocyte nuclei, triple stain for nuclei (DAPI staining), apoptotic nuclei (TUNEL staining), and cardiomyocytes (α-Actinin staining) was used, and the stained sections were analyzed using confocal microscopy. A minimum of ˜10 high power fields with ˜2000 nuclei/field were counted for each sample.
The activity of caspase-3 was determined with colorimetric assay kit (R&D Systems, Minneapolis, Minn.) as described in Choudhury, et al., 2011, Basic Res Cardiol 106:397; Bae, et al., 2010, Am J Physiol Heart Circ Physiol 299:H1374. Briefly, protein samples were added to substrates of Acetyl-Asp-Glu-Val-Asp-p-nitroanilide. The enzyme-catalyzed release of p-nitroanilide was measured at 405 nm. For PARP activity assay, activity was measured at 450 nm by incorporation of biotinylated poly (ADP-ribose) onto histone-coated proteins in plate using colorimetric assay kit (R&D Systems, Minneapolis, Minn., USA).
Heart tissues were collected for molecular analyses were performed in Bae, et al., 2010, Am J Physiol Heart Circ Physiol 299:H1374. […]

[2] = system: TNF-α; test: TNF-α level in LPS-stimulated macrophage cells; format: cell-based, mouse
Description: (§1) FIG. 4, comprising FIGS. 4A-4F, is a set of graphs, bar graphs and images illustrating anti-oxidant and anti-inflammatory effects of BRAP in vitro. […] The generation of ROS was monitored by flow cytometry as an indicator of DCF fluorescence. Fluorescence was analyzed in 10,000 cells with excitation at 480 nm and emission at 530 nm. FIG. 4C: Protective effect of BRAP on H2O2— stimulated adult rat cardiomyocytes. V=vehicle, *<0.05 vs. V+H2O2 (n=4). […] (n=4/group).
(§2) The anti-inflammatory effects of BRAP on LPS-stimulated cells were investigated by measuring the level of inflammatory cytokines such as TNF-α (tumor necrosis factor-alpha) and iNOS (inducible nitric oxide synthases) (FIGS. 4E-4F). […] These observations indicate that BRAP, as well as BRAP-encapsulated PLGA microparticles, is able to scavenge overproduced H2O2 and serve as a H2O2-activable anti-oxidant. Further, the enhanced anti-oxidant activity of BRAP is derived from the combined effects of H2O2-scavenging boronic esters and HBA generation after H2O2-mediated boronate oxidation.

[3] = Cumulative toxicity, daily administration for 7 days in mice; format: in vivo, mouse; settings: 1.5 mg/kg/day intraperitoneal
Description: FIG. 7, comprising FIGS. 7A-7C, is a set of images and bar graphs illustrating the safety profile of BRAP (1.5 mg/kg/day) after daily intraperitoneal administration for 7 days. FIGS. 7A-7B: Creatinine (FIG. 7A) and ALT (FIG. 7B) levels 7 days after daily BRAP administration. FIG. 7C: Representative H/E stained tissue sections of different organs 7 days after daily BRAP administration (n=4/group).
To determine the potential cumulative toxic effects of BRAP, BRAP (1.5 mg/kg/day) was administered daily for 7 days in mice.

[4] = system: iNOS; test: iNOS level in LPS-stimulated macrophage cells; format: cell-based, mouse
Description: as §1, §2

[5] = Reaction of BRAP with H2O2 monitored by 1H NMR in D2O; format: physicochemical
Description: Since BRAP was designed to be rapidly oxidized by H2O2, generating HBA, boric acid and 2-(hydroxymethyl)-2-methylpropane-1,3-diol, the sensitivity of BRAP to H2O2 was investigated using ^1H NMR. BRAP was added to D2O containing H2O2 and the changes in the signal were monitored over time. In the presence of H2O2, BRAP was rapidly oxidized to generate HBA in a H2O2 concentration-dependent manner, confirmed by the appearance of new aromatic proton peaks at 6.8 and 7.2 ppm. In the presence of equimolar concentration of H2O2 (1 mM), a majority of boronic esters were cleaved within 30 minutes, with a half-life of hydrolysis of ˜5 minutes. Nearly all of boronic ester groups were cleaved by 5-fold excess of H2O2 (5 mM) within 5 minutes.

[6] = 1.5 mg/kg i.p. at reperfusion then daily for 2 weeks
[7] = 24 hours after I/R, compared with vehicle-treated mice

Compound: CC1(CO)COB(c2ccc(CO)cc2)OC1 [BRAP, (4-(5-(hydroxymethyl)-5-methyl-1,3,2-dioxaborinan-2-yl)phenyl)methanol]
- I/R-induced cardiac dysfunction by PV loop analysis (CO, SW, EF) [1, 6]: significantly attenuated
- I/R-induced cardiac dysfunction by echocardiography (FS) [1, 6]: significantly attenuated
- TUNEL-positive cardiomyocytes (apoptosis) ([1]; 24 hours after I/R): effectively inhibited
- caspase-3 activation in heart ([1]; 24 hours after I/R): effectively reduced
- MCP-1 mRNA expression in heart [1, 7]: decreased
- TNF-α mRNA expression in heart [1, 7]: decreased
- DHE staining (ROS generation) in heart ([1]; heart tissue 24 hours after I/R): significantly decreased
- TNF-α level [2]: significantly suppressing
- histology of different organs (H/E) [3]: no significant histological evidence of accumulated toxicity
- serum test for hepatic function (ALT) [3]: no significant abnormalities
- serum test for renal function (creatinine) [3]: no significant abnormalities
- iNOS level [4]: significantly suppressing
- time in which nearly all of boronic ester groups were cleaved ([5]; 5-fold excess of H2O2 (5 mM)): ≤ 5 min
- half-life at 1 mM ([5]; D2O containing H2O2, equimolar concentration of H2O2 (1 mM), read-out: half-life of hydrolysis): ~5 min
- stability of boronic ester ([5]; absence of H2O2, 3 days): remained intact
- time in which a majority of boronic esters were cleaved ([5]; equimolar concentration of H2O2 (1 mM)): ≤ 30 min
